Data taken from the NIST ThermoML archive (doi:10.1016/j.fluid.2004.09.013).

Conditions: for mass density: Fluid (supercritical or subcritical phases), Vibrating tube method; for vapor or sublimation pressure: Liquid

C/C=C\C [(Z)-2-butene]
Conditions | mass density [kg/m3]
333.22 K, 14991 kPa | 598.72
333.22 K, 19994 kPa | 606.12
333.22 K, 24988 kPa | 612.8
333.22 K, 30003 kPa | 618.94
333.22 K, 34991 kPa | 624.59
333.22 K, 40010 kPa | 629.87
338.22 K, 1174 kPa | 565.5
338.22 K, 4996 kPa | 574.54
338.22 K, 9996 kPa | 584.64
338.22 K, 14984 kPa | 593.34
338.22 K, 19986 kPa | 601.06
338.22 K, 25003 kPa | 608.03
338.22 K, 29995 kPa | 614.37
338.22 K, 34988 kPa | 620.2
338.22 K, 39995 kPa | 625.64
343.22 K, 1261 kPa | 558.56
343.22 K, 4987 kPa | 568.03
343.22 K, 9997 kPa | 578.77
343.22 K, 14987 kPa | 587.91
343.22 K, 19988 kPa | 595.98
343.22 K, 25014 kPa | 603.24
343.22 K, 30005 kPa | 609.78
343.22 K, 34992 kPa | 615.82
343.22 K, 40014 kPa | 621.42
348.22 K, 1356 kPa | 551.46
348.22 K, 4981 kPa | 561.37
348.22 K, 10002 kPa | 572.81
348.22 K, 14996 kPa | 582.44
348.22 K, 19993 kPa | 590.86
348.22 K, 25004 kPa | 598.39
348.22 K, 30012 kPa | 605.19
348.22 K, 34983 kPa | 611.41
348.22 K, 39993 kPa | 617.18
353.22 K, 1456 kPa | 544.16
353.22 K, 5002 kPa | 554.62
353.22 K, 14994 kPa | 576.89
353.22 K, 19998 kPa | 585.7
353.22 K, 24991 kPa | 593.51
353.22 K, 29987 kPa | 600.55
353.22 K, 34994 kPa | 606.99
353.22 K, 40002 kPa | 612.94
353.23 K, 10003 kPa | 566.75
358.22 K, 1569 kPa | 536.68
358.22 K, 4987 kPa | 547.6
358.22 K, 9992 kPa | 560.57
358.22 K, 15002 kPa | 571.3
358.22 K, 19998 kPa | 580.5
358.22 K, 24995 kPa | 588.63
358.22 K, 29992 kPa | 595.93
358.22 K, 34990 kPa | 602.57
358.22 K, 40000 kPa | 608.7
363.23 K, 1690 kPa | 528.95
363.23 K, 4993 kPa | 540.42
363.23 K, 9989 kPa | 554.28
363.23 K, 15000 kPa | 565.61
363.23 K, 19996 kPa | 575.23
363.23 K, 25014 kPa | 583.72
363.23 K, 29996 kPa | 591.25
363.23 K, 34991 kPa | 598.13
363.23 K, 40007 kPa | 604.46
368.22 K, 1794 kPa | 520.86
368.22 K, 4994 kPa | 533.05
368.22 K, 9998 kPa | 547.94
368.22 K, 15001 kPa | 559.86
368.22 K, 20006 kPa | 569.97
368.22 K, 24996 kPa | 578.78
368.22 K, 30000 kPa | 586.63
368.23 K, 35006 kPa | 593.73
368.23 K, 40001 kPa | 600.21
373.23 K, 1956 kPa | 512.69
373.23 K, 5016 kPa | 525.44
373.23 K, 10014 kPa | 541.44
373.23 K, 15017 kPa | 554.07
373.23 K, 20017 kPa | 564.64
373.23 K, 25015 kPa | 573.81
373.23 K, 30004 kPa | 581.92
373.23 K, 35002 kPa | 589.24
373.23 K, 39988 kPa | 595.91
378.23 K, 2103 kPa | 504.11
378.23 K, 5016 kPa | 517.48
378.23 K, 9997 kPa | 534.7
378.23 K, 15005 kPa | 548.12
378.23 K, 19992 kPa | 559.18
378.23 K, 24999 kPa | 568.75
378.23 K, 29991 kPa | 577.18
378.23 K, 34989 kPa | 584.74
378.23 K, 39985 kPa | 591.64
383.23 K, 2265 kPa | 495.17
383.23 K, 4994 kPa | 509.13
383.23 K, 9994 kPa | 527.89
383.23 K, 15008 kPa | 542.15
383.23 K, 20012 kPa | 553.81
383.23 K, 24996 kPa | 563.74
383.23 K, 29984 kPa | 572.46
383.23 K, 34981 kPa | 580.28
383.23 K, 40007 kPa | 587.41
388.23 K, 2438 kPa | 485.86
388.23 K, 4986 kPa | 500.47
388.23 K, 9987 kPa | 520.91
388.23 K, 14983 kPa | 536.02
388.23 K, 19990 kPa | 548.28
388.23 K, 24990 kPa | 558.67
388.23 K, 30000 kPa | 567.77
388.23 K, 34996 kPa | 575.85
388.23 K, 39999 kPa | 583.17
393.23 K, 2620 kPa | 476.09
393.23 K, 4998 kPa | 491.49

Conditions | vapor or sublimation pressure [kPa]
335.93 K | 625.67
344.91 K | 767.01
345.17 K | 778.59
353.84 K | 949.22
364.75 K | 1196.6
367.83 K | 1274.3
376.36 K | 1508.8
380.95 K | 1643.2
382.47 K | 1703.7
390.94 K | 1988
